Here are results for seven molecules from patent publication US20260021119A1, “TETRACYCLINE DERIVATIVES” (ICM (INSTITUT DU CERVEAU ET DE LA MOELLE ÉPINIÈRE), priority 2022, published 2026).

In test [1] the test system is Gram+ and Gram- bacteria (S. aureus, E. coli, E. faecalis, P. aeruginosa). The test can be described thus: Antibiotic activity, summary over the bacterial strains (Examples 3 and 7). Also on record: key to Antibiotic activity: low: Weak antibiotic activity on only 1 of the 3 bacterial strains (i.e. S aureus); high: Strong antibiotic activity on all 3 bacterial strains; Significant antibiotic activity on two bacterial strains. Particulars: summary over bacterial strains. The class given is cell-based. Here is the method:
(§1) Bacterial strains used in this study were: S. aureus (ATCC25923), E. coli (ATCC25922), E. faecalis (ATCC29212) and P. aeruginosa (PA01). Strains were maintained at −80° C. in 15% (v/v) glycerol for cryoprotection. Bacteria were routinely grown in Mueller-Hinton (MH) broth at 37° C.
(§2) The susceptibility of bacterial strains to antibiotics and compounds was determined in microplates using the standard broth dilution method in accordance with the recommendations of the Comité de 1′Antibiogramme de la Société Française de Microbiologie (CA-SFM). (Members of the SFM Antibiogram Committee, R. Int. J. Antimicrob. Agents 2003, 21, 364). Briefly, the Minimal Inhibitory Concentrations (MICs) were determined with an inoculum of 10^5 CFU in 200 μL of MH broth containing two-fold serial dilutions of each drug. […] To determine all MICs, the measurements were independently repeated in triplicate.
(§3) The compound of formula (Ia) according to the invention was tested against clinical isolates Gram-bacteria (P. aeruginosa, E. coli) and Gram+ bacteria (S. aureus, E. faecalis). Minimum inhibitory concentrations (MIC) were tentatively determined and compared to known antibiotic tetracyclines (doxycycline, demeclocycline, chlortetracycline) and to the compound of formula (B) disclosed in Example 1 of the present application. The test was reproduced twice and the average MIC were calculated.
(§4) The properties of tetracycline derivatives, including the compound of formula (Ia) according to the present invention, were compared regarding the neuroprotection, anti-inflammatory effects, anti-aggregant activity, and antibiotic activity. The properties were evaluated as described herein above.
(§5) EC50s, IC50s determined graphically, *Rescue of dopamine neurons from spontaneous oxidative stress; ** TNF α release inhibition under LPS exposure, ^#Weak antibiotic activity on only 1 of the 3 bacterial strains (i.e. S aureus). ##Strong antibiotic activity on all 3 bacterial strains. ^###Significant antibiotic activity on two bacterial strains.

Test [2] addresses alpha-synuclein (Homo sapiens, UniProt P37840). The test can be described thus: alpha-synuclein aggregation, thioflavin T (ThT) fluorescence. The format is biochemical. The following applies: 20 μM. Here is the method: The antiaggregant effect of the compound of formula (Ia) according to the present invention on alpha-synuclein (αS) was evaluated in vitro by measuring the fluorescence intensity of the probe thioflavin T (ThT), a molecule that specifically binds to cross-β structures characteristic of amyloid-like aggregation. The compound of formula (Ia) was dissolved in dimethylsulfoxide to reach a concentration of […]. In this assay, 70 μM of alpha-synuclein was incubated with and without 10 μM, 20 μM and 50 μM of the compound of formula (Ia), under orbital agitation (600 rpm), at 37° C., for 5 days. After the incubation time, Tht was added to each sample and changes in the emission fluorescence spectra (λex=450 and λem=[…]) was monitored using a Horiba Fluoromax CP4 spectrofluorometer.

In test [3] the test system is P. aeruginosa PA01. The test is described as follows: MIC, broth dilution (Example 3). The following applies: Pseudomonas aeruginosa, 18 h at 37° C., MH broth. The format is cell-based. Here is the method: as §1, §2, §3
On the technique in general: Broth dilution looks for growth in wells or tubes with falling amounts of substance.

Test [4] deals with E. coli ATCC 25922. The test can be described thus: MIC, broth dilution (Example 3). The format is cell-based. Particulars: Escherichia coli, ATCC25922; 18 h at 37° C., MH broth. As for the experimental part:
as §1, §2, §3

Test [5] has as its system E. faecalis ATCC 29212. The test can be described thus: MIC, broth dilution (Example 3). The class given is cell-based. Particulars: Enterococcus faecalis, ATCC29212; 18 h at 37° C., MH broth. As for the experimental part:
as §1, §2, §3

Test [6] relates to S. aureus ATCC 25923. The test is described as follows: MIC, broth dilution (Example 3). The class given is cell-based. The following applies: Staphylococcus aureus, ATCC25923; 18 h at 37° C., MH broth. As for the experimental part: as §1, §2, §3
Test [7] relates to microglia cells (TNF α release under LPS). The test can be described thus: Anti-inflammatory effect in microglia, TNF α release inhibition under LPS exposure. The class given is cell-based. The following applies: TNF α release inhibition under LPS exposure, determined graphically; for IC50: Microglia, read-out: Anti inflammatory effects (IC 50 in μM). Here is the method: Microglia is in charge of the protection of the neurons. However, under stress conditions, microglia cells are responsible of inflammatory phenomena, leading eventually to the death of the neurons. The anti-inflammatory effects of 5 μM and 20 μM of compound of formula (B) presented in Example 1, of 5 μM and 20 μM of compound of formula (Ia) according to the present invention and of 50 μM of doxycycline (DOX) were evaluated, compared to the effect of 2.5 μM of dexamethasone (DEX). Microglia is in charge of the protection of the neurons. However, under stress conditions, microglia cells are responsible of inflammatory phenomena, leading eventually to the death of the neurons. The anti-inflammatory effects of 10 μM and 20 μM of compound of formula (C) (“10 μM (C)” and “20 μM (C)”) and of 10 μM and 20 μM of compound of formula (Ia) according to the present invention (“10 μM (Ia)” and “20 μM (Ia)”) were evaluated, compared to the effect of 2.5 μM of dexamethasone (“DEX”). The properties of tetracycline derivatives, including the compound of formula (Ia) according to the present invention, were compared regarding the neuroprotection, anti-inflammatory effects, anti-aggregant activity, and antibiotic activity. The properties were evaluated as described herein above. EC50s, IC50s determined graphically, *Rescue of dopamine neurons from spontaneous oxidative stress; ** TNF α release inhibition under LPS exposure, ^#Weak antibiotic activity on only 1 of the 3 bacterial strains (i.e. S aureus). ##Strong antibiotic activity on all 3 bacterial strains. ^###Significant antibiotic activity on two bacterial strains.

Test [8] has as its system dopaminergic neurons (TH+ neurons). The test can be described thus: Neuroprotection: rescue of dopamine neurons from spontaneous oxidative stress in primary cultures. The format is cell-based. Particulars: for EC50: Neuron, read-out: Neuroprotection (EC 50 μM). As for the experimental part:
In primary cultures of dopaminergic neurons, TH+ neurons suffer from oxidative stress, leading to the death of the neurons after a few days. When cultured in the presence of a positive reference (apotransferrin), the dopaminergic neurons survive. The neuroprotective effects of 10 μM of doxycycline (DOX) and of 3 μM or 5 μM of the compound of formula (Ia) according to the present invention were evaluated, compared to the effect of 100 μg/mL of apotransferrin (APO).
as §4, §5

Where [9] appears, read: rescue of dopamine neurons from spontaneous oxidative stress, determined graphically.

Each structure is given as a SMILES string. Values after ≈ are worked out from the molar mass of the structure shown. Like-named read-outs stand apart in the source and are kept apart here.

Regarding `CN(C)[C@@H]1C(O)=C(C(N)=O)C(=O)[C@@]2(O)C(O)=C3C(=O)c4c(O)ccc(Cl)c4[C@@](C)(O)[C@H]3C[C@@H]12` [Chlortetracycline], the Antibiotic activity result in test [1] is given as “high”. Further, the “Anti aggregant activity at 20 μM” value in test [2] was “yes”. Moreover, the MIC – broadly, the lowest concentration found to suppress growth – was determined as 32 µM (≈ 15.3 µg/mL) in test [3], 6.25 µM (≈ 2.99 µg/mL) in test [4], 1.6 µM (≈ 0.766 µg/mL) in test [5] and 1.6 µM (≈ 0.766 µg/mL) in test [6]. Also, in test [7], the IC50 was found to be 1 µM. Moreover, in test [8] (setting [9]), the “Neuroprotection (EC 50 μM)” value was “no”.
`C[C@H]1c2cccc(O)c2C(=O)C2=C(O)[C@]3(O)C(=O)C(C(N)=O)=C(O)C[C@@H]3[C@@H](O)[C@@H]21` [Compound of formula (B)]: the Antibiotic activity entry in test [1] is given as “low”. The “Anti aggregant activity at 20 μM” value in test [2] is on record as “yes”. Further, the figures for the MIC in test [3], in test [4] and in test [6] were more than 2000 µM, 200 µM and 25 µM, respectively. Further, in test [7], the “Anti inflammatory effects (IC 50 in μM)” value is “no”. In test [8] (setting [9]), the “Neuroprotection (EC 50 μM)” value is recorded as “no”.
For the molecule `CN(C)[C@@H]1C(O)=C(C(N)=O)C(=O)[C@@]2(O)C(O)=C3C(=O)c4c(O)ccc(Cl)c4[C@@H](O)C3CC12` (some centres unmarked) [Compound of formula (D)], the Antibiotic activity entry in test [1] is “high^##”. Besides, the “Anti aggregant activity at 20 μM” value in test [2] is on record as “yes”. For the same molecule, the “Anti inflammatory effects (IC 50 in μM)” value in test [7] is on record as “no”. In addition, in test [8] (setting [9]), the EC50 was 1.84 µM.
Turning to `CC1(O)c2c(Cl)ccc(O)c2C(=O)C2=C(O)C3C(=O)C(C(N)=O)=C(O)CC3CC21` (centres unmarked) [Compound of formula (E)], in test [1], the Antibiotic activity result is listed as “low”. The “Anti aggregant activity at 20 μM” value in test [2] was “yes”. The “Anti inflammatory effects (IC 50 in μM)” value in test [7] is listed as “no”. Moreover, the EC50 in test [8] came to 2.01 µM.
Consider `NC(=O)C1=C(O)C[C@@H]2C[C@@H]3Cc4cccc(O)c4C(=O)C3=C(O)[C@]2(O)C1=O` [Compound of formula (F), incyclinide], for which the Antibiotic activity entry in test [1] was “Significant^###”. Also, in test [2], the “Anti aggregant activity at 20 μM” value was “yes”. Also, the IC50 in test [7] worked out at 8 µM. The “Neuroprotection (EC 50 μM)” value in test [8] (setting [9]) is on record as “no”.
For `CC1c2ccc(-c3ccccc3)c(O)c2C(=O)C2=C(O)C3(O)C(=O)C(C(N)=O)=C(O)CC3[C@@H](O)C21` (some centres unmarked) [Compound of formula (G)] the same measures were “low”, “yes”, 8 µM and “no”.
As to `CN(C)[C@@H]1C(O)=C(C(N)=O)C(=O)[C@@]2(O)C(O)=C3C(=O)c4c(O)ccc(Cl)c4[C@@H](O)[C@H]3C[C@@H]12` [Demeclocycline], the MIC in test [3] worked out at 32 µM (≈ 14.9 µg/mL); in test [4], 3.12 µM (≈ 1.45 µg/mL); in test [5] it was 0.4 µM (≈ 0.186 µg/mL); in test [6], 0.4 µM (≈ 0.186 µg/mL).
